Assay results as given in PubChem BioAssay AID504322 (Emory University Molecular Libraries Screening Center, 2011).
Active and inactive are the calls of the source. No rule for the calls is given here.

tested on: CHOP reporter cell assay, percent of control; assay: CHOP reporter inhibitor potency, dose response, cell-based (AID 504322);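 also: CHO cells carrying a CHOP reporter stimulated with tunicamycin to induce ER stress; potency is for inhibition of the stress-induced reporter signal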

| SMILES | IC50 |
| --- | --- |
| CC(C)CCN(C(=O)Cc1ccc(Cl)c(Cl)c1)c1c(N)n(Cc2ccccc2)c(=O)[nH]c1=O | 5.74 µM (inactive) |
| O=c1oc2ccccc2c(Cl)c1CN1CCCCC1 | 9.26 µM (inactive) |
| COc1ccc(-c2[nH]ncc2/C=C(/C#N)C(=O)NC2CCCCCC2)cc1 | 9.23 µM (inactive) |
| CCCCCCOC(=O)Nc1ccc(S(=O)(=O)Nc2cccc([N+](=O)[O-])c2)cc1 | > 10 µM (inactive) |
| C=CCn1c(COc2ccccc2)nnc1SC(C)C(=O)N/N=C/c1cc(Cl)ccc1O (stereo not drawn) | 9.66 µM (inactive) |
| CC(C)c1ccc(-c2cc(C(=O)N3N=C(C(F)F)CC3(O)C(F)F)c3ccccc3n2)cc1 (stereo not drawn) | 8.38 µM (inactive) |
| CCCCCCOC(=O)c1ccccc1N | 6.31 µM (inactive) |
| O=C(NCCNC(=O)c1cc(OCC(F)(F)F)ccc1OCC(F)(F)F)Nc1cccc(C(F)(F)F)c1 | 2.57 µM |
| Cc1ccc(-c2nnc(-c3ccc(NC(=O)Cc4cccs4)cc3)o2)cc1 | 8.41 µM (inactive) |
| CN(C)CCCn1c(SCC(=O)Nc2nc(-c3cccc(Br)c3)cs2)nc2ccccc2c1=O | 9.51 µM (inactive) |
| Clc1nssc1=Nc1ccc(Br)cc1 | 6.25 µM (inactive) |
| CCc1ccc(/C=C2\SC(=S)N(CCCC(=O)Nc3ccccn3)C2=O)cc1 | 0.16 µM |
| CCCCCn1c(=O)c(C(=O)Nc2nc3ccccc3[nH]2)c(O)c2ccccc21 | 4.96 µM |
| C=C1C(=O)O[C@@H]2C[C@@H](C)[C@@H]3C=CC(=O)[C@@]3(C)[C@@H](O)[C@H]12 | 2.61 µM |
| CC(C)COc1ccc(/C(=N/O)c2ccccc2)cc1 | 5.73 µM (inactive) |
| O=C1NC[C@@H](Cc2cccc3ccccc23)N(CCc2cc(C(F)(F)F)cc(C(F)(F)F)c2)C1=O | 9.02 µM (inactive) |
| CCc1ccc(-c2nc(CN3CCC(C(=O)NCCN(CC)c4ccccc4)CC3)c(C)o2)cc1 | 3.46 µM (inactive) |
| CC(C)(C)c1ccc(C2CC2C(=O)N/N=C\c2ccc[nH]2)cc1 (stereo not drawn) | 4.18 µM (inactive) |
| Cc1ccc(NC(=O)c2cc3ccccc3oc2=O)cc1S(=O)(=O)N(C)C | < 0.16 µM |
| Cc1cc(C(C)(C)C)oc1C(=O)N1CCN(C(=O)c2oc(C(C)(C)C)cc2C)CC1 | 9.99 µM (inactive) |
| CCCCn1c(N2CCC(Cc3ccccc3)CC2)nc2c1c(=O)[nH]c(=O)n2C | 6.06 µM (inactive) |
| CCCCCc1ccc(OCCOCCn2c[n+](C)c3ccccc32)c(CCCCC)c1 | 3.52 µM |
| O=C(N/N=C/c1ccc(F)cc1)c1c(O)c2ccccc2[nH]c1=O | > 10 µM (inactive) |
| O=C(OCn1ncc(Br)c(Br)c1=O)c1c(F)cccc1F | 0.76 µM |

| SMILES | IC50 |
| --- | --- |
| CC1=CC(C)(C)N2C(=O)C3(SCC(=O)N3c3ccc(F)cc3)c3cc(C)cc1c32 (stereo not drawn) | > 10 µM (inactive) |
| CC(C)CCSc1nc2c(c(=O)[nH]c(=O)n2C)n1CCCc1ccccc1 | 5.19 µM |
| CCCCCCCCCCCCCCCC[n+]1cccc2ccccc21 | 0.41 µM |
| COc1cccc(-c2nnc(NC(=O)c3ccc(S(=O)(=O)N(CC(C)C)CC(C)C)cc3)o2)c1 | 4.13 µM |
| COCCn1c(=NC(=O)/C=C/c2cccs2)sc2cc(NC(C)=O)ccc21 | > 10 µM (inactive) |
| Cc1nc(Nc2nc(CSc3nc4ccccc4[nH]3)cc(=O)[nH]2)nc2ccccc12 | 5.68 µM (inactive) |
| O=C(CCl)Nc1ccc(Sc2ccc(NC(=O)CCl)cc2)cc1 | 4.97 µM |
| CCCN1C=CC(=C2C(=O)c3ccccc3C2=O)C=C1 | 1.78 µM (inactive) |
| O=C1C(Nc2ccc(O)cc2)=C/C(=N/S(=O)(=O)c2cccs2)c2ccccc21 | 1.19 µM |
| Cc1ccc(-n2c(=O)[nH]c3c(C(N)=O)nc(-c4ccc(C)o4)nc32)cc1 | > 10 µM (inactive) |
| O=C1c2ccccc2-c2onc3ccc(Oc4ccccc4)c1c23 | 9.64 µM (inactive) |
| Clc1ccc2c(N/N=C/c3ccc(Br)cc3)ccnc2c1 | 9.92 µM (inactive) |
| O=S(=O)(N/N=C/c1ccc(Cl)cc1)c1ccc(Cc2ncc(C(F)(F)F)cc2Cl)s1 | 6.37 µM (inactive) |
| Nc1c(S(=O)(=O)c2cccc(Cl)c2)c2nc3ccccc3nc2n1/N=C/c1ccc(O)c(O)c1 | 4.97 µM (inactive) |
| CCOC(=O)CCS(=O)(=O)c1nc(-c2ccccc2)cc(C(F)(F)F)n1 | < 0.16 µM |
| Cn1c(=O)[nH]c(=O)c2[nH]c(N(Cc3ccccc3)Cc3ccccc3)nc21 | 6.18 µM (inactive) |
| CCCCc1c(C)nn(-c2nnc3c4ccccc4n(CC)c3n2)c1C | 9.73 µM (inactive) |
| COc1cc(/C=C(\C#N)c2nc3ccccc3[nH]2)cc(Br)c1OCc1ccc(F)cc1 | 6.3 µM (inactive) |
| CCOC(=O)C1=C(c2ccc(OC)cc2)C(=O)c2ccccc2C1=O | 8.81 µM (inactive) |
| CCCCCCN1C=CC(=C2C(=O)c3ccccc3C2=O)C=C1 | 6.36 µM (inactive) |
| Cc1ccc(NC(=O)c2ccc(C#CC3(O)CCCCC3)cc2)cc1C | > 10 µM (inactive) |
| OC(CNCCc1ccc(C(F)(F)F)cc1)COc1cccc2ccccc12 (stereo not drawn) | < 0.16 µM (inactive) |
| Cc1nn(-c2ccc(C(F)(F)F)cn2)c(C)c1Oc1ccccc1O | 5.94 µM (inactive) |
| O=C1CC(c2cccc(Cl)c2)CC(O)=C1C=Nc1cccc(Cl)c1 (stereo not drawn) | 9.72 µM (inactive) |
